Experimental data reported in patent US8853230B2, “Inhibitors of JAK” (Portola Pharmaceuticals, Inc., priority 2009, dated 2014).

Assays:
Assay type in all cases: biochemical
[1] = target: T1, JAK3 (Homo sapiens, UniProt P52333); assay: Z'-LYTE kinase assay, JAK3 tyrosine phosphorylation activity
T1 construct: 5 μl of catalytic domain recombinant Kinase enzyme+Tyr peptide substrate (Invitrogen, Calif.); purchased Invitrogen
Procedure: (§1) JAK and TYK2 tyrosine phosphorylation activity is measured using the Z′-LYTE™ Technology developed by Invitrogen Corporation (Carlsbad, Calif.). For JAK1, JAK2 and JAK3 the Z′-LYTE™ Kinase Assay Kit-Tyr6 Peptide (part number PV4122) was used. For TYK2 the Z′-LYTE™ Kinase Assay Kit-Tyr6 Peptide (part number PV3192) was used. The Z′-LYTE™ biochemical assay employs a fluorescence resonance energy transfer (FRET) coupled-enzyme format and is based on the differential sensitivity of phosphorylated and non-phosphorylated peptides to proteolitic cleavage. The assay uses a synthetic peptide substrate that is labelled with a donor fluorophore (coumarin) and an acceptor fluorophore (fluorescein) that make up a FRET pair. In the primary reaction (the Kinase Reaction), the kinase transfers the γ-phosphate of ATP to a single tyrosine residue on the substrate, while the presence of a kinase inhibitor in the primary reaction suppresses phosphorylation. In the secondary reaction (the Development Reaction), a site-specific protease (the Development Reagent) is added. The development buffer quenches the Kinase Reaction, while the protease recognizes and cleaves non-phosphorylated Z′-LYTE™ peptide substrate. Cleavage disrupts FRET between the donor and acceptor fluorophores on the non-phosphoryleted substrate, while uncleaved, phosphorylated substrate maintains FRET.
(§2) To test the ability of candidate molecules to inhibit JAK tyrosine phosphorylation activity, molecules are reconstituted in 100% DMSO and serially diluted 1:10 in polypropylene v-bottom microtiter plates. The candidate molecules are then diluted 1:25 into kinase buffer and 2.5 μl transferred into duplicate wells of a 384 well low volume black microtiter assay plate (Corning, USA). The final DMSO concentration in the assay is 1%. The kinase reaction contains 2.5 μl of a candidate molecule, 5 μl of catalytic domain recombinant Kinase enzyme+Tyr peptide substrate (Invitrogen, Calif.) and 2.5 μl ATP (Invitrogen, Calif.). The kinase reaction is allowed to procede for 1 hour at room temperature. The protease reaction is initiated by the addition of 5 μl Development Reagent (Invitrogen, Calif.). After 1 hour incubation at room temperature the fluorescence is measured using a FlexStation plate reader (Molecular Devices, Sunnyvale, Calif.). The reader settings used are as follows: Fluorescence mode, endpoint, top read, excitation 400 nm, emission 445 nm and 520 nm, Auto Cutoff 435 nm and 515 nm, PMT sensitivity high, 6 reads per well. Inhibition of JAK activity is calculated as the percent phosphorylation of substrate in the presence of inhibitor compared to the percent phosphorylation of substrate in the absence of inhibitor. IC50's were derived using Xlfit 4.3 (IDBS, UK), 4 parameter logistic model 205: Y=(A+((B−A)/(1+((C/x)^D)))).

[2] = target: T2, JAK1 (Homo sapiens, UniProt P23458); assay: Z'-LYTE kinase assay, JAK1 tyrosine phosphorylation activity; details: read-out: JAK 1 IC50
T2 construct: 5 μl of catalytic domain recombinant Kinase enzyme+Tyr peptide substrate (Invitrogen, Calif.); purchased Invitrogen
T2 sequence (P23458 875-1153 limits assumed): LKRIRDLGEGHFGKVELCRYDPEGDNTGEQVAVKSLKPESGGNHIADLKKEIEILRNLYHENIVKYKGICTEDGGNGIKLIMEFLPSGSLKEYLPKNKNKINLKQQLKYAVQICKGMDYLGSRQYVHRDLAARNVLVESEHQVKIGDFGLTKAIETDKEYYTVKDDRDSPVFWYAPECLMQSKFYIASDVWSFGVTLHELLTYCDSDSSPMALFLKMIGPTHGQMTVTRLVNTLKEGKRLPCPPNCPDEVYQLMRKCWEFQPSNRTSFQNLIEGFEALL
Procedure: as §1, §2

[3] = target: T3, JAK2 (Homo sapiens, UniProt O60674); assay: Z'-LYTE kinase assay, JAK2 tyrosine phosphorylation activity
T3 construct: 5 μl of catalytic domain recombinant Kinase enzyme+Tyr peptide substrate (Invitrogen, Calif.); purchased Invitrogen
T3 sequence (O60674 849-1124 limits assumed): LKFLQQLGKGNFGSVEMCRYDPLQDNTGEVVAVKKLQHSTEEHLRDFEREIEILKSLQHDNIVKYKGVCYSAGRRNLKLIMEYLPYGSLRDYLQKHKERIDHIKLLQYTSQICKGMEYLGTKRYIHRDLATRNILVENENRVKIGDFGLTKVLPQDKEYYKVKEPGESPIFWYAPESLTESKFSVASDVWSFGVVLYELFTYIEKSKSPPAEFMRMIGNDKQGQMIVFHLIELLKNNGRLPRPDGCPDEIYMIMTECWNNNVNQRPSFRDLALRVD
Procedure: as §1, §2

[4] = target: T4, TYK2 (Homo sapiens, UniProt P29597); assay: Z'-LYTE kinase assay, TYK2 tyrosine phosphorylation activity
T4 construct: 5 μl of catalytic domain recombinant Kinase enzyme+Tyr peptide substrate (Invitrogen, Calif.); purchased Invitrogen
T4 sequence (P29597 897-1176 limits assumed): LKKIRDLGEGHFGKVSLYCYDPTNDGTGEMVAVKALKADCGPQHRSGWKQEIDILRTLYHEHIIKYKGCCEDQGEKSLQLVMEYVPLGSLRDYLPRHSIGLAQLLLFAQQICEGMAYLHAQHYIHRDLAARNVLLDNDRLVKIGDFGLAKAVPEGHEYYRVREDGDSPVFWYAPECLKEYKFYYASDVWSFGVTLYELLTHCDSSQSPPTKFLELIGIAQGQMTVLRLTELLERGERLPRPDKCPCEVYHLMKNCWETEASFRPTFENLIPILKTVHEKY
Procedure: as §1, §2

T1 sequence (P52333 822-1111 limits assumed): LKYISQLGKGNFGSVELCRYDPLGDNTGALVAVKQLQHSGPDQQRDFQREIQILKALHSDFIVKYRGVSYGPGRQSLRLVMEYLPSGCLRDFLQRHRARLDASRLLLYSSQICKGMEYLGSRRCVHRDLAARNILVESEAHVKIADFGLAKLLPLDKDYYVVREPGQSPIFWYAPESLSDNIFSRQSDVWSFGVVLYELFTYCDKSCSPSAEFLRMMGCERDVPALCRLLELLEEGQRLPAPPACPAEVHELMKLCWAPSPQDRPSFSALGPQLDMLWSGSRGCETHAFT

Row | Structure (SMILES) | IC50 [1] | IC50 [2] | IC50 [3] | IC50 [4]
1 | CC(=O)N(C)c1cccc(Nc2ncc(C(N)=O)c(NCC3CC3)n2)c1 [Example 126, 4-(cyclopropylmethylamino)-2-(3-(N-methylacetamido)phenylamino)pyrimidine-5-carboxamide] | 10 to 100 nM | 10 to 100 nM | 10 to 100 nM | 10 to 100 nM
2 | NC(=O)c1cnc(Nc2cccc(NC(=O)N3CCCC3)c2)nc1NCC(F)(F)F [Example 136, 2-(3-(pyrrolidine-1-carboxamido)phenylamino)-4-(2,2,2-trifluoroethylamino)pyrimidine-5-carboxamide] | 10 to 100 nM | 10 to 100 nM | 10 to 100 nM | 10 to 100 nM
3 | CC(=O)Nc1cccc(Nc2ncc(C(N)=O)c(NCc3ccc(F)cc3)n2)c1 [Example 103, 2-(3-acetamidophenylamino)-4-(4-fluorobenzylamino)pyrimidine-5-carboxamide] | 10 to 100 nM | 100 to 1000 nM | 10 to 100 nM | 10 to 100 nM
4 | CC(=O)Nc1cccc(Nc2ncc(C(N)=O)c(Nc3ccc(N4CCOCC4)c(F)c3)n2)c1 [Example 198] | 10 to 100 nM | > 1000 nM | 10 to 100 nM | 10 to 100 nM
5 | NC(=O)c1cnc(Nc2cccc(N(C(=O)C3CC3)C3CC3)c2)nc1NCc1ccccc1 [Example 151, 4-(benzylamino)-2-(3-(N-cyclopropylcyclopropanecarboxamido)phenylamino)pyrimidine-5-carboxamide] | > 1000 nM | > 1000 nM | > 1000 nM | > 1000 nM
6 | C[C@@H](Nc1nc(Nc2cccc(NC(=O)N3CCCC3)c2)ncc1C(N)=O)c1ccccc1 [Example 105, (R)-4-(1-phenylethylamino)-2-(3-(pyrrolidine-1-carboxamido)phenylamino)pyrimidine-5-carboxamide] | 1 to 10 nM | 100 to 1000 nM | 10 to 100 nM | 10 to 100 nM
7 | COCC(=O)Nc1cccc(Nc2ncc(C(N)=O)c(NCC3CC3)n2)c1 [Example 124, 4-(cyclopropylmethylamino)-2-(3-(2-methoxyacetamido)phenylamino)pyrimidine-5-carboxamide] | 1 to 10 nM | 10 to 100 nM | 10 to 100 nM | 1 to 10 nM
8 | COCC(=O)Nc1cccc(Nc2ncc(C(N)=O)c(NCc3ccc(F)cc3)n2)c1 [Example 104, 4-(4-fluorobenzylamino)-2-(3-(2-methoxyacetamido)phenylamino)pyrimidine-5-carboxamide] | 10 to 100 nM | 100 to 1000 nM | 10 to 100 nM | 10 to 100 nM
9 | COC[C@@H]1CCCN1C(=O)Nc1cccc(Nc2ncc(C(N)=O)c(N[C@H](C)c3ccccc3)n2)c1 [Example 138, 2-(3-((S)-2-(methoxymethyl)pyrrolidine-1-carboxamido)phenylamino)-4-((R)-1-phenylethylamino)pyrimidine-5-carboxamide] | 1 to 10 nM | 100 to 1000 nM | 10 to 100 nM | 10 to 100 nM
10 | CC(=O)Nc1cccc(Nc2ncc(C(N)=O)c(NCc3cccc(Cl)c3)n2)c1 [Example 101, 2-(3-acetamidophenylamino)-4-(3-chlorobenzylamino)pyrimidine-5-carboxamide] | 1 to 10 nM | 10 to 100 nM | 1 to 10 nM | 10 to 100 nM

The remaining lines, values ahead:

Row | IC50 [1] | IC50 [2] | IC50 [3] | IC50 [4] | Structure (SMILES)
11 | 10 to 100 nM | 100 to 1000 nM | 100 to 1000 nM | 100 to 1000 nM | CC(C)CNc1cc(Nc2cccc(NC(=O)N3CCCC3)c2)ncc1C(N)=O [Example 324, 4-(isobutylamino)-6-(3-(pyrrolidine-1-carboxamido)phenylamino)nicotinamide]
12 | 1 to 10 nM | 100 to 1000 nM | 10 to 100 nM | 10 to 100 nM | CC(=O)Nc1cc(Nc2ncc(C(N)=O)c(NCc3cccc(F)c3)n2)ccc1OCCN(C)C [Example 228, 2-(3-acetamido-4-(2-(dimethylamino)ethoxy)phenylamino)-4-(3-fluorobenzylamino)pyrimidine-5-carboxamide]
13 | 10 to 100 nM | 100 to 1000 nM | 100 to 1000 nM | 10 to 100 nM | CC(C)CCNc1cc(Nc2cccc(NC(=O)N3CCCC3)c2)ncc1C(N)=O [Example 328, 4-(isopentylamino)-6-(3-(pyrrolidine-1-carboxamido)phenylamino)nicotinamide]
14 | 1 to 10 nM | 10 to 100 nM | 10 to 100 nM | 10 to 100 nM | C[C@@H](Nc1nc(Nc2cccc(NC(=O)N3CCC(O)CC3)c2)ncc1C(N)=O)c1ccccc1 [Example 215]
15 | 10 to 100 nM | 100 to 1000 nM | 100 to 1000 nM | 100 to 1000 nM | CC(=O)Nc1cccc(Nc2ncc(C(N)=O)c(NCC3CCN(C(=O)OC(C)(C)C)C3)n2)c1 (stereo not drawn) [Example 225, tert-butyl 3-((2-(3-acetamidophenylamino)-5-carbamoylpyrimidin-4-ylamino)methyl)pyrrolidine-1-carboxylate]
16 | 100 to 1000 nM | 100 to 1000 nM | 100 to 1000 nM | 10 to 100 nM | CC(=O)Nc1cccc(Nc2cc(NC3CCCC3)c(C(N)=O)cn2)c1 [Example 330, 6-(3-acetamidophenylamino)-4-(cyclopentylamino)nicotinamide]
17 | 10 to 100 nM | 100 to 1000 nM | 100 to 1000 nM | 10 to 100 nM | CC(=O)Nc1cccc(Nc2cc(NCC3CCC3)c(C(N)=O)cn2)c1 [Example 331, 6-(3-acetamidophenylamino)-4-(cyclobutylmethylamino)nicotinamide]
18 | 1 to 10 nM | 10 to 100 nM | 10 to 100 nM | 1 to 10 nM | CC(=O)Nc1cccc(Nc2ncc(C(N)=O)c(NCC(C)C)n2)c1 [Example 235, 2-(3-acetamidophenylamino)-4-(isobutylamino)pyrimidine-5-carboxamide]
19 | 10 to 100 nM | > 1000 nM | 100 to 1000 nM | – | NC(=O)c1cnc(Nc2cccc(NC(=O)N3CCCC3)c2)cc1NCc1cccnc1 [Example 320, 4-(pyridin-3-ylmethylamino)-6-(3-(pyrrolidine-1-carboxamido)phenylamino)nicotinamide]
20 | 1 to 10 nM | 100 to 1000 nM | 100 to 1000 nM | – | NC(=O)c1cnc(Nc2cccc(NC(=O)N3CCOCC3)c2)cc1N[C@H](CO)c1ccccc1 [Example 314, (S)—N-(3-(5-carbamoyl-4-(2-hydroxy-1-phenylethylamino)pyridin-2-ylamino)phenyl)morpholine-4-carboxamide]
21 | 10 to 100 nM | > 1000 nM | > 1000 nM | – | NC(=O)c1cnc(Nc2ccc(F)c(NC(=O)N3CCCC3)c2)cc1NCc1cccnc1 [Example 304, 6-(4-fluoro-3-(pyrrolidine-1-carboxamido)phenylamino)-4-(pyridin-3-ylmethylamino)nicotinamide]
22 | 100 to 1000 nM | – | 100 to 1000 nM | 100 to 1000 nM | NC(=O)c1cnc(Nc2cccc(NC(=O)N3CCC[C@@H](O)C3)c2)nc1NCc1ccccc1 [Example 212, (R)-4-(benzylamino)-2-(3-(3-hydroxypiperidine-1-carboxamido)phenylamino)pyrimidine-5-carboxamide]
23 | 10 to 100 nM | 100 to 1000 nM | 100 to 1000 nM | – | CC(=O)Nc1cccc(Nc2cc(NCc3cccnc3)c(C(N)=O)cn2)c1 [Example 321, 6-(3-acetamidophenylamino)-4-(pyridin-3-ylmethylamino)nicotinamide]
24 | 1 to 10 nM | > 1000 nM | 100 to 1000 nM | – | NC(=O)c1cnc(Nc2cccc(NC(=O)N3CCCC3)c2)cc1N[C@H](CO)c1ccccc1 [Example 315, (S)-4-(2-hydroxy-1-phenylethylamino)-6-(3-(pyrrolidine-1-carboxamido)phenylamino)nicotinamide]
